Earlier results, collected in patent US20150283090A1, “USE OF SILICON OXIDE-BASED MATERIAL FOR THE MODIFIED RELEASE OF BIOLOGICALLY ACTIVE AGENTS” (MERCK PATENT GMBH, priority 2012, published 2015).
Where two headings read alike, the source gives them in different places.

Columns and labels:
[1] = C1 silylation of MCM-41
[2] = MCM-48 and LP-la3d, pore sizes 3.6 and 5.7 nm, modified with C8 and C18 hydrocarbon chains
[3] = silica hybrid gels with methyl or propyl functionalization

Q: Which release rate [1] does the source give for `C[C@H](CS)C(=O)N1CCC[C@H]1C(=O)O` [Captopril] here?
A: decrease of release rate of Captopril with increasing degree of C1 silylation

Q: For `CC(C)Cc1ccc(C(C)C(=O)O)cc1` (centres unmarked) [ibuprofen], which delivery rates [2] is on record?
A: decrease of delivery rates when the surface of the material is modified

Q: Which drug release [3] does the source give for `OCCN(CCO)c1nc(N2CCCCC2)c2nc(N(CCO)CCO)nc(N3CCCCC3)c2n1` [persantin] here?
A: inhibition of drug release with an increasing number of methyl or propyl functionalization

Q: Which results are given for `CN[C@H](CC(C)C)C(=O)N[C@H]1C(=O)N[C@@H](CC(N)=O)C(=O)N[C@H]2C(=O)N[C@H]3C(=O)N[C@H](C(=O)N[C@H](C(=O)O)c4cc(O)cc(O)c4-c4cc3ccc4O)[C@H](O)c3ccc(c(Cl)c3)Oc3cc2cc(c3O[C@@H]2O[C@H](CO)[C@@H](O)[C@H](O)[C@H]2O[C@H]2C[C@](C)(N)[C@H](O)[C@H](C)O2)Oc2ccc(cc2Cl)[C@H]1O` [vancomycin]?
A: release kinetics of vancomycin from SBA-15 (after functionalizing with octylmethoxysilane (C8)): 0.068 min-½; release kinetics of vancomycin from SBA-15 (non-functionalized material): 0.890 min-½
